In patent publication US20220395477A1, “COMPOSITIONS AND METHODS FOR PREVENTING AND TREATING RESPIRATORY SYNCYTIAL VIRUS INFECTION” (priority 2019, published 2022):

System: RSV Line 19 (rA2-KL19F)
Assay: RFP (mKate2)-expressing RSV infection of A549 cells pretreated with SCFAs 24 hours before infection (RFP/DAPI)
Assay type: cell-based, Human Respiratory Syncytial Virus
Settings: single SCFA 100 to 300 μM, 3 MOI, imaged after 48 hours
Procedure: Images taken after 48 Hrs.
Cells were infected at 3 MOI of RSV Line 19 (rA2-KL19F) expressing a red fluorescent marker, mKate2, as well as the F protein from the mucogenic clinical strain, and media was replaced with the appropriate SCFAs that was previously used in cultured. After 48 hours, the cells were stained with NucBlue (life technologies) and imaged using a Keyence fluorescence microscope (FIGS. 4A-4B).

Compound	expression of RFP-MKate (RFP/DAPI)
CC(=O)O [acetate]	reduces the expression of RFP-MKate
CCC(=O)O [propionate]	reduces the expression of RFP-MKate
